What was measured:
Assay type in all cases: in vivo
Details in all cases: obese mice induced by high-fat diet, 200 mg tributyrin daily, 8 weeks
[1] = tested on: Akkermansia muciniphila; assay: 16s rRNA sequencing of fecal samples, relative abundance change of Akkermansia muciniphila
[2] = tested on: Streptococcus gordonii; assay: 16s rRNA sequencing of fecal samples, level of Streptococcus gordonii
[3] = tested on: Megamonas; assay: 16s rRNA sequencing of fecal samples, relative abundance change of Megamonas
[4] = tested on: Klebsiella; assay: 16s rRNA sequencing of fecal samples, relative abundance change of Klebsiella
[5] = tested on: Lactobacillus; assay: 16s rRNA sequencing of fecal samples, relative abundance change of Lactobacillus

SMILES: CCCC(=O)OCC(COC(=O)CCC)OC(=O)CCC [tributyrin, Tributyrin]
- increase of the level of Akkermansia muciniphila [1]: 119%
- decrease of the level of Streptococcus gordonii [2]: about 80%
- decrease of the level of Megamonas [3]: 91%
- decrease of the level of Klebsiella [4]: 67%
- increase of the level of Lactobacillus [5]: 101%
